Our source for the IC50 values is ChEMBL document CHEMBL1154739, “Synthesis and AChE inhibitory activity of new chiral tetrahydroacridine analogues from terpenic cyclanones” (Eur J Med Chem, 2010).

SMILES strings stand for the structures. pIC50: −log10 of the molar value.

The assay deals with T1, Acetylcholinesterase (Rattus norvegicus, UniProt P37136).
T1 sequence (P37136 whole entry): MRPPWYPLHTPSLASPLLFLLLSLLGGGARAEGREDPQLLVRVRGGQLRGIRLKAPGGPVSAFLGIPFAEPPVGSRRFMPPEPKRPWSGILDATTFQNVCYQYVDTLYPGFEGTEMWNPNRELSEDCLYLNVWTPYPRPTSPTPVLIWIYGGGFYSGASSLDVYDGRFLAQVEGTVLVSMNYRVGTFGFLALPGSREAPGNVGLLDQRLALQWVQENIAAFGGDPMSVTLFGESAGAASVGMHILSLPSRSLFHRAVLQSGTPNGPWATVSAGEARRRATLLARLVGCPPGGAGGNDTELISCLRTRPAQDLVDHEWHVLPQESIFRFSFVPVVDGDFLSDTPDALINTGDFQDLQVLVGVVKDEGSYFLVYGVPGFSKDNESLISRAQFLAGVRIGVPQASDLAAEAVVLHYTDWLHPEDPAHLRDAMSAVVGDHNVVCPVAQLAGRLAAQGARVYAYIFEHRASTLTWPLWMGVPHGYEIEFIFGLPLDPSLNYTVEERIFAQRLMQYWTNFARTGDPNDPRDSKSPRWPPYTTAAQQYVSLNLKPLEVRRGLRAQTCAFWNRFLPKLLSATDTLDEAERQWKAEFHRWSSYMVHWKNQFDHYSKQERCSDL
Description: Inhibition of AChE from rat cortex by Ellman assay
As to `CC(C)[C@@H]1Cc2nc3ccccc3c(N)c2C1`, the pIC50 is 5.61.
Regarding `CC(C)[C@H]1CC[C@H](C(C)C)c2c1nc1ccccc1c2N`, the pIC50 is 5.14. Compared with the last compound, the pIC50 is 0.47 log units lower.
The value for `CC(C)[C@H]1CCc2c(nc3ccccc3c2N)C1` was 6.09; that for `C[C@H]1CC(=O)C(C)(C)c2nc3ccccc3c(N)c2C1` was 6.54.
The compound `C[C@@H]1c2c(nc3ccccc3c2N)[C@H]2C[C@@H]1C2(C)C` showed a pIC50 of 5.58.
The compound `C[C@H]1Cc2nc3ccccc3c(N)c2C1` gave a pIC50 of 7.21.
The value for `C[C@@H]1CCc2c(nc3ccccc3c2N)C1` was 5.86.
The result for `C[C@H]1CC[C@H](C(C)(C)C)c2nc3ccccc3c(N)c21` reads 5.87; that for `CC1(C)[C@H]2Cc3c(nc4ccccc4c3N)[C@@H]1C2`, 5.71.

The pIC50 is the negative decadic logarithm of the IC50, by convention in mol/L. The low end stands for a high IC50, the high end for a low IC50.
